Test results published in ChEMBL document CHEMBL3227974, “Multivariate analysis and quantitative structure-activity relationships. Inhibition of dihydrofolate reductase and thymidylate synthetase by quinazolines” (J Med Chem, 1979).

Assays:
[1] = target: T1, Dihydrofolate reductase (Homo sapiens) (UniProt P00374)
T1 sequence (whole entry): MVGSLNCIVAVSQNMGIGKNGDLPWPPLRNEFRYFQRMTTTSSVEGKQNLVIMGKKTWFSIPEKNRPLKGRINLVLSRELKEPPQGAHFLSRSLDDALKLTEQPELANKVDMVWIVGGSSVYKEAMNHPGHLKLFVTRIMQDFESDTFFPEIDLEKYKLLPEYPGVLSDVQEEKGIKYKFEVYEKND
Description: Inhibition of dihydrofolate reductase in human acute lymphocytic leukemia cells

[2] = target: Thymidylate synthase (Mus musculus) (UniProt P07607); test: Inhibition of thymidylate synthetase in mouse L1210S cells; type: cell-based
Sequence of Thymidylate synthase (Mus musculus) (P07607 whole entry, looked up): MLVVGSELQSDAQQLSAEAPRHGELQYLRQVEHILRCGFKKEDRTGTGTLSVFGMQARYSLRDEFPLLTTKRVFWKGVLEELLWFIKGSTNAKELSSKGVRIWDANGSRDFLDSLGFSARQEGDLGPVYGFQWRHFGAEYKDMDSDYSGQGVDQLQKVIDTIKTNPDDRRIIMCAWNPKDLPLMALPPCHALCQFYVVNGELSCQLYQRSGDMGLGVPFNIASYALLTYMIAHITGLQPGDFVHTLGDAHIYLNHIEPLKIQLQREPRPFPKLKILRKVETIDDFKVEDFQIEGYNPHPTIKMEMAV

[3] = target: T2, Thymidylate synthase (Lactobacillus casei) (UniProt P00469); test: Inhibition of thymidylate synthetase in Lactobacillus casei; settings: Lacticaseibacillus casei
T2 sequence (whole entry): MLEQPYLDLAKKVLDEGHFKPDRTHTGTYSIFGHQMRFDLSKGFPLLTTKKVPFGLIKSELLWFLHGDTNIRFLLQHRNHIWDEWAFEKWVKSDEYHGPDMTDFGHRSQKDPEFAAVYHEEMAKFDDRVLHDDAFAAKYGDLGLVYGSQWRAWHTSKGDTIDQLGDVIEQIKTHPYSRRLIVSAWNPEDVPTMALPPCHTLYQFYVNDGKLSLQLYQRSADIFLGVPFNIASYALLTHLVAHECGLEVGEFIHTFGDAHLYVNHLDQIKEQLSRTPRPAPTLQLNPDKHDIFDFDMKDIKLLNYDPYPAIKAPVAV

[4] = target: T3, Dihydrofolate reductase (Mus musculus) (UniProt P00375); test: Inhibition of dihydrofolate reductase in mouse L1210R cells; type: cell-based
T3 sequence (whole entry): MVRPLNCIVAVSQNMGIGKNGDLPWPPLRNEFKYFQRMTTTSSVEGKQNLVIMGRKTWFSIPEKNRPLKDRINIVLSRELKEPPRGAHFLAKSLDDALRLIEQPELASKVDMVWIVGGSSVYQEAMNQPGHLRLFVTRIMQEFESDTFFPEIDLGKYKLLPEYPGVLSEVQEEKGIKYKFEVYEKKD

Structure (SMILES) | log(1/I50) [1] | log(1/I50) [2] | log(1/I50) [3] | log(1/I50) [4]
CN(Cc1ccc2nc(N)nc(O)c2c1)c1ccc(C(=O)NC(CCC(=O)O)C(=O)O)cc1 (stereo not drawn) | 6.22 | 7.3 | 6.4 | 
COc1cc(NCc2ccc3nc(N)nc(N)c3c2)cc(OC)c1OC | 8.22 |  |  | 
CCOC(=O)CCC(NC(=O)c1ccc(CNc2ccc3nc(N)nc(N)c3c2)cc1)C(=O)OCC (stereo not drawn) | 7.66 | 6 | 5 | 
Nc1nc(N)c2cc(NCc3ccc(C(=O)NC(CCC(=O)O)C(=O)O)cc3)ccc2n1 (stereo not drawn) | 8 | 6.6 | 5.3 | 
Nc1nc(O)c2cc(CN(C=O)c3ccc(C(=O)NC(CCC(=O)O)C(=O)O)cc3)ccc2n1 (stereo not drawn) |  | 7 | 5.52 | 
CN(Cc1ccc2nc(N)nc(O)c2c1)c1ccc(C(=O)O)cc1 |  | 4.7 | 4.12 | 
Cc1c(CNc2cccc(Br)c2)ccc2nc(N)nc(N)c12 | 8.82 |  |  | 8.82
CN(Cc1ccc2nc(N)nc(N)c2c1)c1ccc(Cl)c(Cl)c1 | 8.3 |  |  | 
CCOC(=O)CCC(NC(=O)c1ccc(CNc2ccc3nc(N)nc(O)c3c2)cc1)C(=O)OCC (stereo not drawn) | 5.65 | 6 | 4.46 | 
Nc1nc(O)c2cc(CNc3ccc(C(=O)O)cc3)ccc2n1 |  | 4 | 4 | 
Nc1nc(N)c2cc(CNc3ccc(Cl)c(C(=O)NC(CCC(=O)O)C(=O)O)c3)ccc2n1 (stereo not drawn) | 6.7 |  |  | 8.03
CCOC(=O)c1ccc(CNc2ccc3nc(N)nc(O)c3c2C)cc1 |  | 4 | 4.05 | 
Cc1c(NCc2ccc(C(=O)O)cc2)ccc2nc(N)nc(O)c12 |  | 4.05 | 4.05 | 
CCOC(=O)CCC(NC(=O)c1ccc(N(C)Cc2ccc3nc(N)nc(O)c3c2)cc1)C(=O)OCC (stereo not drawn) |  | 5.12 | 4.12 | 
Nc1nc(N)c2cc(CNc3ccc(C(=O)NC(C(=O)O)C(=O)O)cc3)ccc2n1 | 9.1 |  |  | 8.81
Nc1nc(N)c2cc(CN(N=O)c3ccc(Cl)c(Cl)c3)ccc2n1 | 8 |  |  | 8
CCOC(=O)c1ccc(NCc2ccc3nc(N)nc(N)c3c2C)cc1 |  | 4 | 4 | 
Nc1nc(N)c2cc(CNc3cccc(Cl)c3)ccc2n1 | 8 |  |  | 8
Nc1nc(O)c2cc(CCc3ccc(C(=O)NC(CCC(=O)O)C(=O)O)cc3)ccc2n1 (stereo not drawn) | 6.31 | 5.3 | 5.12 | 
Cc1c(NCc2ccc(C(=O)NC(CCC(=O)O)C(=O)O)cc2)ccc2nc(N)nc(N)c12 (stereo not drawn) | 9.07 | 6.6 | 5.6 | 
Cc1c(CNc2ccc(C(=O)NC(CCC(=O)O)C(=O)O)cc2)ccc2nc(N)nc(O)c12 (stereo not drawn) |  | 7 | 4.9 | 
Nc1nc(=O)c2cc(NCc3ccc(C(=O)NC(CCC(=O)O)C(=O)O)cc3)ccc2[nH]1 (stereo not drawn) | 5.78 | 6.3 | 5 | 

Structure (SMILES) | log(1/I50) [1] | log(1/I50) [2] | log(1/I50) [3] | log(1/I50) [4]
Nc1nc(=O)c2cc(CSc3ccc(C(=O)NC(CCC(=O)O)C(=O)O)cc3)ccc2[nH]1 (stereo not drawn) | 4.9 | 6 | 5.6 | 
Nc1nc(O)c2cc(COc3ccc(C(=O)NC(CCC(=O)O)C(=O)O)cc3)ccc2n1 (stereo not drawn) |  | 5 | 4 | 
Cc1c(CNc2ccc(C(=O)NC(CC(=O)O)C(=O)O)cc2)ccc2nc(N)nc(N)c12 (stereo not drawn) | 8.9 | 6 | 5 | 8.87
CCOC(=O)CCC(NC(=O)c1ccc(SCc2ccc3nc(N)nc(O)c3c2)cc1)C(=O)OCC (stereo not drawn) | 5.05 | 7 | 5.1 | 
CCOC(=O)CCC(NC(=O)c1ccc(NCc2ccc3nc(N)nc(N)c3c2C)cc1)C(=O)OCC (stereo not drawn) | 8.49 | 5.12 | 4.3 | 
Cc1c(CNc2ccc(C(=O)NC(CCC(=O)O)C(=O)O)cc2)ccc2nc(N)nc(N)c12 (stereo not drawn) | 8.78 |  |  | 
CCOC(=O)c1ccc(NCc2ccc3nc(N)nc(O)c3c2)cc1 | 4.66 | 4 | 4 | 
NC(=O)CCC(NC(=O)c1ccc(NCc2ccc3nc(N)nc(N)c3c2)cc1)C(=O)O (stereo not drawn) | 10.1 |  |  | 9.66
Nc1nc(N)c2cc(CNc3ccc(Cl)cc3)ccc2n1 | 8.22 |  |  | 8.3
Cc1c(CN(N=O)c2ccc(Cl)c(Cl)c2)ccc2nc(N)nc(N)c12 | 8 |  |  | 
CN(Cc1ccc2nc(N)nc(S)c2c1)c1ccc(C(=O)O)cc1 |  | 5.12 | 4.12 | 
Nc1nc(N)c2cc(Oc3ccc(CNc4ccc(C(=O)NC(CC(=O)O)C(=O)O)cc4)cc3)ccc2n1 (stereo not drawn) | 7.77 |  |  | 7.67
Nc1nc(N)c2cc(CN(C=O)c3ccc(C(=O)O)cc3)ccc2n1 |  | 4 | 4.12 | 
Nc1nc(N)c2cc(CN(C=O)c3ccc(C(=O)NC(CCC(=O)O)C(=O)O)cc3)ccc2n1 (stereo not drawn) | 8.22 |  |  | 
Cc1c(CNc2ccc(Cl)c(C(=O)NC(CCC(=O)O)C(=O)O)c2)ccc2nc(N)nc(N)c12 (stereo not drawn) | 8.52 |  |  | 8.68
CN(Cc1ccc2nc(N)nc(N)c2c1)c1ccc(C(=O)NC(CC(=O)O)C(=O)O)cc1 (stereo not drawn) | 8.69 |  |  | 8.66
Cc1c(CNc2ccc(Cl)c(Cl)c2)ccc2nc(N)nc(N)c12 | 8.59 |  |  | 
CCOC(=O)c1ccc(NCc2ccc3nc(N)nc(N)c3c2)cc1 |  | 4 | 4 | 
Nc1nc(N)c2cc(Oc3ccc(CNc4ccc(C(=O)NC(CCC(=O)O)C(=O)O)cc4)cc3)ccc2n1 (stereo not drawn) | 7.8 |  |  | 7.71
CC(=O)N(Cc1ccc2nc(N)nc(N)c2c1)c1ccc(Cl)c(Cl)c1 | 7.3 |  |  | 
Cc1c(CNc2ccc(C(=O)NC(CC(=O)O)CC(=O)O)cc2)ccc2nc(N)nc(N)c12 | 8.17 |  |  | 9.15
Nc1nc(N)c2cc(CNc3ccc(C(=O)NC(CCC(=O)O)C(=O)O)cc3)ccc2n1 (stereo not drawn) |  | 5 | 4 | 

Structure (SMILES) | log(1/I50) [1] | log(1/I50) [2] | log(1/I50) [3] | log(1/I50) [4]
COc1cc(NCc2ccc3nc(N)nc(N)c3c2C)cc(OC)c1OC | 8.89 |  |  | 8.92
CCOC(=O)CCC(NC(=O)c1ccc(NCc2ccc3nc(N)nc(N)c3c2)cc1)C(=O)OCC (stereo not drawn) |  | 4 | 4 | 
Nc1nc(N)c2cc(CNc3ccc(C(=O)NC(CC(=O)O)CC(=O)O)cc3)ccc2n1 | 8.25 |  |  | 8.14
CCOC(=O)CCC(NC(=O)c1ccc(CNc2ccc3nc(N)nc(O)c3c2C)cc1)C(=O)OCC (stereo not drawn) | 5.1 | 5.12 | 4 | 
Nc1nc(N)c2cc(CNc3cccc(Br)c3)ccc2n1 | 8.66 |  |  | 8.64
Nc1nc(N)c2cc(CNc3cc(C(=O)NC(CC(=O)O)C(=O)O)ccc3Cl)ccc2n1 (stereo not drawn) | 8.52 |  |  | 8.54
Nc1nc(O)c2cc(NCc3ccc(C(=O)O)cc3)ccc2n1 |  | 4 | 4 | 
Nc1nc(N)c2cc(CNc3ccc(Cl)c(C(F)(F)F)c3)ccc2n1 | 8.4 |  |  | 
Nc1nc(N)c2cc(CNc3ccc(Cl)c(Cl)c3)ccc2n1 | 8.42 |  |  | 8.05
Nc1nc(N)c2c(Cl)c(CNc3ccc(C(=O)NC(CCC(=O)O)C(=O)O)cc3)ccc2n1 (stereo not drawn) | 9.11 |  |  | 9.05
Nc1nc(N)c2cc(NCc3ccc(C(=O)NC(CC(=O)O)C(=O)O)cc3)ccc2n1 (stereo not drawn) |  |  |  | 7.36
Nc1nc(N)c2cc(CNc3ccc(Cl)c(C(=O)NC(CC(=O)O)C(=O)O)c3)ccc2n1 (stereo not drawn) | 7.92 |  |  | 8.37
CCOC(=O)CCC(NC(=O)c1ccc(NCc2ccc3nc(N)nc(O)c3c2)cc1)C(=O)OCC (stereo not drawn) |  | 6.6 | 4.15 | 
Cc1c(NCc2ccc(C(=O)NC(CCC(=O)O)C(=O)O)cc2)ccc2nc(N)nc(O)c12 (stereo not drawn) | 6.12 | 5.12 | 4.3 | 
Nc1nc(N)c2cc(CNc3ccc(C(=O)NC(CC(=O)O)C(=O)O)cc3)ccc2n1 (stereo not drawn) | 8.94 |  |  | 8.76
CCOC(=O)c1ccc(CNc2ccc3nc(N)nc(N)c3c2C)cc1 |  | 4 | 5 | 8
Nc1nc(S)c2cc(CNc3ccc(C(=O)O)cc3)ccc2n1 |  | 4 | 4 | 
Nc1nc(N)c2c(Cl)c(CNc3ccc(C(=O)NC(CC(=O)O)C(=O)O)cc3)ccc2n1 (stereo not drawn) | 9.35 |  |  | 9.21
CCOC(=O)c1ccc(CNc2ccc3nc(N)nc(O)c3c2)cc1 | 5.49 | 4 | 4.3 | 
Nc1nc(N)c2cc(CNc3ccc(C(=O)NC(CC(=O)O)C(=O)O)cc3Cl)ccc2n1 (stereo not drawn) | 8.82 |  |  | 9.13
Nc1nc(N)c2c(Cl)c(CNc3ccc(Cl)c(Cl)c3)ccc2n1 | 8.96 |  |  | 8.7
